Results taken from ChEMBL document CHEMBL1146637, “Structure-activity relationship in the oxazolidinone-quinolone hybrid series: influence of the central spacer on the antibacterial activity and the mode of action” (Bioorg Med Chem Lett, 2003).
Values after ≈ are worked out from the molar mass of the structure shown.

Columns and labels:
Enterococcus faecalis = test: In vitro antibacterial activity against Enterococcus faecalis ATCC 29212 (Efs) was determined; format: functional
Escherichia coli [1] = test: In vitro antibacterial activity against Escherichia coli ATCC 25922 (Ecol) was determined; format: functional
Staphylococcus aureus [2] = test: In vitro antibacterial activity against […] Staphylococcus aureus ATCC 29213 (Saul); format: functional
Staphylococcus aureus [3] = test: In vitro antibacterial activity against ciprofloxacin and methicillin resistant Staphylococcus aureus (Sau2CIP) was determined; format: functional
Escherichia coli [4] = test: In vitro antibacterial activity against Escherichia coli AS19 (Eco2), permeable mutant was determined; format: functional
Enterococcus faecium = test: In vitro antibacterial activity against vancomycin and ciprofloxacin resistant Enterococcus faecium (Efm CIP) was determined; format: functional
Staphylococcus aureus [5] = test: In vitro antibacterial activity against oxazolidinone Linezolid resistant Staphylococcus aureus (Sau3LZD) was determined; format: functional
Haemophilus influenzae = test: In vitro antibacterial activity against Haemophilus influenzae 11 (Hin) was determined; format: functional
Escherichia coli [6] = test: In vitro inhibitory activity against protein synthesis was determined by transcription/translation assay with Escherichia coli S30 Extract System.; format: functional
DNA gyrase = DNA gyrase (Escherichia coli, UniProt P0AES4+P0AES6); test: Inhibitory activity against DNA gyrase enzyme was determined by supercoiling assay with Escherichia coli DNA gyrase; format: protein-complex assay
[7] = Inhibitory activity against Escherichia coli Topoisomerase IV in relaxation assay; format: functional

Compound | MIC (Enterococcus faecalis) [µg/mL] | MIC (Escherichia coli [1]) [µg/mL] | MIC (Staphylococcus aureus [2]) [µg/mL] | MIC (Staphylococcus aureus [3]) [µg/mL] | MIC (Escherichia coli [4]) [µg/mL] | MIC (Enterococcus faecium) [µg/mL] | MIC (Staphylococcus aureus [5]) [µg/mL] | MIC (Haemophilus influenzae) [µg/mL] | IC50 (Escherichia coli [6]) [µM] | IC50 (DNA gyrase) [µM] | IC50 [7] [µM]
CC(=O)NC[C@H]1CN(c2ccc(O[C@@H]3CCN(c4nc5c(cc4F)c(=O)c(C(=O)O)cn5C4CC4)C3)c(F)c2)C(=O)O1 | 0.5 (≈ 0.857 µM) | 8 (≈ 13.7 µM) | 1 (≈ 1.71 µM) | 0.5 (≈ 0.857 µM) | ≤ 0.06 | 2 (≈ 3.43 µM) | 0.5 (≈ 0.857 µM) | 0.5 (≈ 0.857 µM) |  |  | 
CC(=O)NC[C@H]1CN(c2ccc(N3CCN(c4nc5c(cc4F)c(=O)c(C(=O)O)cn5C4CC4)CC3)c(F)c2)C(=O)O1 | 0.125 (≈ 0.215 µM) | 32 (≈ 54.9 µM) | 0.25 (≈ 0.429 µM) | 0.25 (≈ 0.429 µM) | 0.06 (≈ 0.103 µM) | 0.25 (≈ 0.429 µM) | 8 (≈ 13.7 µM) | 1 (≈ 1.72 µM) | 2.8 | 50 | 10
CC(=O)NC[C@H]1CN(c2ccc(OC[C@H]3CCN(c4nc5c(cc4F)c(=O)c(C(=O)O)cn5C4CC4)C3)c(F)c2)C(=O)O1 | 0.06 (≈ 0.1 µM) | 1 (≈ 1.67 µM) | 0.125 (≈ 0.209 µM) | 0.125 (≈ 0.209 µM) | ≤ 0.06 | 0.125 (≈ 0.209 µM) | 0.125 (≈ 0.209 µM) | 0.25 (≈ 0.418 µM) |  |  | 
CC(=O)NC[C@H]1CN(c2ccc(O[C@H]3CCN(c4nc5c(cc4F)c(=O)c(C(=O)O)cn5C4CC4)C3)c(F)c2)C(=O)O1 | 0.125 (≈ 0.214 µM) | 1 (≈ 1.71 µM) | ≤ 0.06 | 0.25 (≈ 0.428 µM) | ≤ 0.06 | 1 (≈ 1.71 µM) | ≤ 0.06 | ≤ 0.06 | 6.7 | 10 | 3
CC(=O)NC[C@H]1CN(c2ccc(OCC3CCN(c4nc5c(cc4F)c(=O)c(C(=O)O)cn5C4CC4)CC3)c(F)c2)C(=O)O1 | ≤ 0.06 | > 32 | 0.125 (≈ 0.204 µM) | 0.125 (≈ 0.204 µM) | 0.125 (≈ 0.204 µM) | 0.125 (≈ 0.204 µM) | 1 (≈ 1.64 µM) | 0.5 (≈ 0.818 µM) |  |  | 
O=C(O)c1cn(C2CC2)c2cc(N3CCNCC3)c(F)cc2c1=O [CIPROFLOXACIN] | 1 (≈ 3.02 µM) | ≤ 0.03 | 0.5 (≈ 1.51 µM) | > 32 | ≤ 0.03 | > 32 | 0.5 (≈ 1.51 µM) | ≤ 0.03 | > 20 |  | 2.5
CC(=O)NC[C@H]1CN(c2ccc(OC3CCCN(c4nc5c(cc4F)c(=O)c(C(=O)O)cn5C4CC4)CC3)c(F)c2)C(=O)O1 (some centres not stated) | 0.25 (≈ 0.409 µM) | 8 (≈ 13.1 µM) | 0.5 (≈ 0.818 µM) | 0.25 (≈ 0.409 µM) | ≤ 0.06 | 0.5 (≈ 0.818 µM) | 0.5 (≈ 0.818 µM) | 1 (≈ 1.64 µM) |  |  | 
CC(=O)NC[C@H]1CN(c2ccc(OC3CN(c4nc5c(cc4F)c(=O)c(C(=O)O)cn5C4CC4)C3)c(F)c2)C(=O)O1 | 0.5 (≈ 0.878 µM) | 1 (≈ 1.76 µM) | 0.25 (≈ 0.439 µM) | 0.5 (≈ 0.878 µM) | ≤ 0.06 | 2 (≈ 3.51 µM) | ≤ 0.06 | 0.125 (≈ 0.219 µM) |  |  | 
